How the values were obtained:
CRBN/DDB1 = CRBN/DDB1 (Homo sapiens (Human), UniProt Q96SW2); assay: HTRF binding assay to CRBN/DDB1; settings: read-out: CRBN HTRF IC50
Procedure: The binding potency was determined using HTRF assay technology (Perkin Elmer). Compounds were serially diluted in DMSO and 0.2 μL volume was transferred to white 384-well plate.

ER [1] = target: T1, ER (Homo sapiens (Human), UniProt P03372); assay: In-cell western (ICW) ER degradation assay in MCF-7 cells; format: cell-based; settings: MCF7, 16 hrs; for DC50: ER degradation; for Dmax: MCF7, maximal ER degradation; for MCF7 Dmax %: maximal ER degradation
Procedure: (§1) ERa degradative activity of compounds can be assessed in MCF-7 and T47D Cells. MCF-7 and T47D cell are seeded and are subsequently treated with the compounds at certain concentrations (e.g., 0.02 to 300 nM). DMSO can be used as vehicle control. Cells are fixed and are blocked with Intercept (PBS) Blocking Buffer (e.g., Li-COR, Odyssey Blocking Buffer), and are stained with ER (e.g., 1:500, Cell signaling) primary antibody for overnight at cold room. Secondary Antibody (e.g., IRDye 800CW Goat anti-Rabbit IgG) and CellTag 700 Stain are added in Intercept (PBS) Blocking Buffer. Finally, cell plate is placed in incubator to dry. Image and signal are captured on Odyssey® DLx Imaging System.
(§2) Day 3: After 16 hrs of compounds treatment, cells were fixed by 4% PFA and permeabilized with elution buffer (0.1% Triton X-100 in 1% PBS Solution). Subsequently, cells were blocked with Intercept (PBS) Blocking Buffer (Li-COR, Odyssey Blocking Buffer), and were stained with ER (1:500, Cell signaling) primary antibody for overnight at cold room.
(§3) Day 4: Remove the buffer, add IRDye 800CW Goat anti-Rabbit IgG Secondary Antibody (1:2000) and CellTag 700 Stain (1:500) in Intercept (PBS) Blocking Buffer. Finally, cell plate is placed in incubator to dry. Image and signal were captured on Odyssey® DLx Imaging System.

ER [2] = target: T1, ER; assay: In-cell western (ICW) ER degradation assay in T47D cells; format: cell-based; settings: 16 hrs; for DC50: ER degradation; for Dmax: maximal ER degradation
Procedure: as §1, §2, §3

Sequence of CRBN/DDB1 (Q96SW2 whole entry): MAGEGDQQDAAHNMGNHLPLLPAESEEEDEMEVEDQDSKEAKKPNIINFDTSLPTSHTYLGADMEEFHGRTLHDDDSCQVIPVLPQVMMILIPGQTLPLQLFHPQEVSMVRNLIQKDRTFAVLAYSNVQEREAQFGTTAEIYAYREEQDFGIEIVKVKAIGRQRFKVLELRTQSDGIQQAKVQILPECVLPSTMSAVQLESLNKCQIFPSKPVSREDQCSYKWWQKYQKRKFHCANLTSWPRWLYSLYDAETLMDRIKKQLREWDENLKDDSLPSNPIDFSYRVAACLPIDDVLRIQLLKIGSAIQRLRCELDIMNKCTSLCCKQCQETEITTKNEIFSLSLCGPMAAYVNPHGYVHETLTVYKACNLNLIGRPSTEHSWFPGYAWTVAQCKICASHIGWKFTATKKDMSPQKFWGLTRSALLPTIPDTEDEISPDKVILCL
Sequence of CRBN/DDB1 (Q16531 whole entry partner): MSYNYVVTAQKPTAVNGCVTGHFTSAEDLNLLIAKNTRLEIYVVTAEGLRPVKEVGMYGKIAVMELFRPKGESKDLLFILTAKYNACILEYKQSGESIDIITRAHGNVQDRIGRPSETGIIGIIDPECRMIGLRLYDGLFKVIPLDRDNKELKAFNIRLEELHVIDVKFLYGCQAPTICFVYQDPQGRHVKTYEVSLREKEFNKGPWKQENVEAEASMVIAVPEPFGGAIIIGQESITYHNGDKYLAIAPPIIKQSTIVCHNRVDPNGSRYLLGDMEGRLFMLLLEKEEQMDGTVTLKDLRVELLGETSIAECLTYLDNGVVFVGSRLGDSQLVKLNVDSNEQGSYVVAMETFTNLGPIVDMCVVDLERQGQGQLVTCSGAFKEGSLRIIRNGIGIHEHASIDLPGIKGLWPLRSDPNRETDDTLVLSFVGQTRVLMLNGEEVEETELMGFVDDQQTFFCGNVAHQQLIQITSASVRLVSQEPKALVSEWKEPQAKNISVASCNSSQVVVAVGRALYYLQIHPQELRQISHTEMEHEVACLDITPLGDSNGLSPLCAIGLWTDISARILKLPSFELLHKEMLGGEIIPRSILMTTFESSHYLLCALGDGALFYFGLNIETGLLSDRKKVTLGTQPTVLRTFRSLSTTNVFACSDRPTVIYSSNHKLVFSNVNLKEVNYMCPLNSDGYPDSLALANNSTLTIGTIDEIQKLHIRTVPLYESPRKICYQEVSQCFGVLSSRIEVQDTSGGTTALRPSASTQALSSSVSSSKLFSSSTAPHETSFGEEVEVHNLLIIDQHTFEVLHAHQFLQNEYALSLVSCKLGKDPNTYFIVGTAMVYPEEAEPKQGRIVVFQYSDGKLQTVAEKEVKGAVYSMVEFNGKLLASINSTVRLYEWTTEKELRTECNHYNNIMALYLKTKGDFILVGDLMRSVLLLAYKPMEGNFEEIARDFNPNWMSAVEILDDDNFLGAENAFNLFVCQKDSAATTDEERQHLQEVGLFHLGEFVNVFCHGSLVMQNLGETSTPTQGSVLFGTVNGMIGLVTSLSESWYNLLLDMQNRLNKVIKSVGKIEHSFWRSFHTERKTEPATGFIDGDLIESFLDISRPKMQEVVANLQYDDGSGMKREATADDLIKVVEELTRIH
T1 sequence (P03372 whole entry): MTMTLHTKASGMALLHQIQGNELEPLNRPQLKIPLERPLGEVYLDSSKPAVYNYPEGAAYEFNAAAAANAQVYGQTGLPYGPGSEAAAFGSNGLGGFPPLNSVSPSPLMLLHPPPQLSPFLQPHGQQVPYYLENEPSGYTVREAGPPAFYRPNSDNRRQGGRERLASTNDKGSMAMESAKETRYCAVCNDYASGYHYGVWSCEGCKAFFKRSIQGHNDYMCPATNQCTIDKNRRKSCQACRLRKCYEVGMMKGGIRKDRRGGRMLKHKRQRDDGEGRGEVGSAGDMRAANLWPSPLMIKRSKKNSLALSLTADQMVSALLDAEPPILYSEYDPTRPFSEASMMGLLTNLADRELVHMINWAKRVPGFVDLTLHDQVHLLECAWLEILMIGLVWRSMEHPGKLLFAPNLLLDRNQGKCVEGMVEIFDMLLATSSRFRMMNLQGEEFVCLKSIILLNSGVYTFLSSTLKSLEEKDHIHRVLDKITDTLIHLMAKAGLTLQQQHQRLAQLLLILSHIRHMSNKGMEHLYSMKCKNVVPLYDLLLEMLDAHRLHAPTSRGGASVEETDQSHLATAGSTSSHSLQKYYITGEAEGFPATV

SMILES | IC50 (CRBN/DDB1) | DC50 (ER [1]) | Dmax (ER [1]) | DC50 (ER [2]) | Dmax (ER [2]) | MCF7 Dmax % (ER [1])
O=C1CC[C@@H](Nc2ccc(C3CCN(C[C@@H]4COC5(CCN(c6ccc([C@H]7c8ccc(O)cc8OC[C@H]7c7ccccc7)cc6)CC5)C4)CC3)c(F)c2)C(=O)N1 (mixture of isomers) [Compound A162, 3-((3-fluoro-4-(1-(((R)-8-(4-((3RS, 4SR)-7-hydroxy-3-phenylchroman-4-yl)phenyl)-1-oxa-8-azaspiro[4.5]decan-3-yl)methyl)piperidin-4-yl)phenyl)amino)piperidine-2,6-dione] | < 0.05 µM | < 0.001 µM | 25 to 50% | < 0.001 µM | ≥ 75% | 
O=C1CCC(N2Cc3c(ccc4c3OC[C@H]3CN(CC5CCN(c6ccc([C@@H]7c8ccc(O)cc8OC[C@@H]7c7ccccc7)cc6F)CC5)CCN43)C2=O)C(=O)N1 (single isomer, unassigned) [Compound A9] | 0.05 to 0.5 µM | 0.001 to 0.01 µM |  |  |  | 
Cc1nn(C2CCC(=O)NC2=O)c2ccc(N3CCN(CC4CCN(c5ccc([C@@H]6c7ccc(O)cc7OC[C@@H]6c6ccccc6)cc5F)CC4)CC3)cc12 (single isomer, unassigned) [Compound A14] | 0.5 to 5 µM | 0.001 to 0.01 µM | 25 to 50% |  |  | 
Cc1nn(C2CCC(=O)NC2=O)c2ccc(N3CCN(CC4CC5(CCN(c6ccc([C@H]7c8ccc(O)cc8OC[C@H]7c7ccccc7)cc6)CC5)C4)CC3)cc12 (single isomer, unassigned) [Compound A17] | 0.05 to 0.5 µM | < 0.001 µM | 50 to 75% |  |  | 
O=C1CCC(N2Cc3cc4c(cc3C2=O)OC[C@@H]2CN(CC3CC5(CCN(c6ccc([C@H]7c8ccc(O)cc8OC[C@H]7c7ccccc7)cc6)CC5)C3)CCN42)C(=O)N1 (single isomer, unassigned) [Compound A27, 3-((S)-3-((7-(4-((3R,4S)-7-hydroxy-3-phenylchroman-4-yl)phenyl)-7-azaspiro[3.5]nonan-2-yl)methyl)-8-oxo-1,2,3,4,4a,5,8,10-octahydro-9H-pyrazino[1′,2′:4,5][1,4]oxazino[2,3-f]isoindol-9-yl)piperidine-2,6-dione] | 0.5 to 5 µM | 0.001 to 0.01 µM |  |  |  | 
COc1cccc([C@@H]2COc3cc(O)ccc3[C@@H]2c2ccc(N3CCC(CN4CCN5c6ccc7c(c6OC[C@H]5C4)CN(C4CCC(=O)NC4=O)C7=O)CC3)cc2)c1 (single isomer, unassigned) [Compound A34] | 0.05 to 0.5 µM | 0.001 to 0.01 µM | 25 to 50% |  |  | 
O=C1CCC(N2Cc3c(ccc4c3OC[C@H]3CN(CC5CCN(c6ncc([C@@H]7c8ccc(O)cc8OC[C@@H]7c7ccccc7)cn6)CC5)CCN43)C2=O)C(=O)N1 (single isomer, unassigned) [Compound A36] | 0.05 to 0.5 µM | 0.01 to 0.1 µM | 25 to 50% |  |  | 
O=C1CC[C@H](N2Cc3c(ccc4c3OC[C@H]3CN(CC5CC6(CCN(c7ccc([C@@H]8c9ccc(O)cc9OC[C@@H]8c8ccccc8)cc7)CC6)C5)CCN43)C2=O)C(=O)N1 (single isomer, unassigned) [Compound A37] | < 0.05 µM | 0.001 to 0.01 µM |  |  |  | C (“C”: 25%-50%)
O=C1CCC(N2C(=O)c3cc4c(cc3C2=O)CN(CC(=O)N2CCC3(CC2)CN(c2ccc([C@H]5c6ccc(O)cc6OC[C@H]5c5ccccc5)cc2)C3)C4)C(=O)N1 (single isomer, unassigned) [Compound A38] | 0.05 to 0.5 µM | 0.01 to 0.1 µM | 25 to 50% |  |  | 
O=C1CCC(N2C(=O)c3cc4c(cc3C2=O)CN(CC(=O)N2CC3(CCN(c5ccc([C@H]6c7ccc(O)cc7OC[C@H]6c6ccccc6)cc5)CC3)C2)C4)C(=O)N1 (single isomer, unassigned) [Compound A39] | 0.05 to 0.5 µM | > 0.1 µM | < 25% |  |  | 
O=C1CCC(N2Cc3cc4c(cc3C2=O)CN(C(=O)CN2CCC3(CC2)CCN(c2ccc([C@@H]5c6ccc(O)cc6OC[C@@H]5c5ccccc5)cc2)CC3)C4)C(=O)N1 (single isomer, unassigned) [Compound A42] | 0.05 to 0.5 µM | > 0.1 µM | < 25% |  |  | 
O=C1CCC(N2Cc3cc4c(cc3C2=O)CN(C(=O)CN2CC3(CCN(c5ccc([C@H]6c7ccc(O)cc7OC[C@H]6c6ccccc6)cc5)CC3)C2)C4)C(=O)N1 (single isomer, unassigned) [Compound A45] | 0.05 to 0.5 µM | > 0.1 µM |  |  |  | D (“D”; <25%)
O=C1CCC(N2C(=O)c3cc4c(cc3C2=O)CN(C(=O)C2CCN(C3CCN(c5ccc([C@H]6c7ccc(O)cc7OC[C@H]6c6ccccc6)cc5)CC3)CC2)C4)C(=O)N1 (single isomer, unassigned) [Compound A78] | 0.5 to 5 µM |  |  | 0.01 to 0.1 µM | 25 to 50% | 
O=C1CCC(N2Cc3cc4c(cc3C2=O)CN(C(=O)C2CCN(C3CCN(c5ccc([C@H]6c7ccc(O)cc7OC[C@H]6c6ccccc6)cc5)CC3)CC2)C4)C(=O)N1 (single isomer, unassigned) [Compound A80] | 0.5 to 5 µM |  |  | 0.01 to 0.1 µM | 50 to 75% | 
O=C1CCN(c2ccc(N3CCN(CC4CCN(c5ccc([C@@H]6c7ccc(O)cc7OC[C@@H]6c6ccccc6)cc5)CC4)CC3)cc2)C(=O)N1 (single isomer, unassigned) [Compound A82] | 0.5 to 5 µM |  |  | 0.001 to 0.01 µM | 25 to 50% | 
O=C1CCN(c2ccc(N3CCN(CC4CC5(CCN(c6ccc([C@@H]7c8ccc(O)cc8OC[C@@H]7c7ccccc7)cc6)CC5)C4)CC3)cc2)C(=O)N1 (single isomer, unassigned) [Compound A83] | > 5 µM |  |  | > 0.1 µM | < 25% | 
O=C1CCN(c2ccc(N3CCC(CN4CC5(CCN(c6ccc([C@@H]7c8ccc(O)cc8OC[C@@H]7c7ccccc7)cc6)CC5)C4)CC3)cc2)C(=O)N1 (single isomer, unassigned) [Compound A87] | > 5 µM |  |  | 0.001 to 0.01 µM | 25 to 50% | 
COc1nc(C(=O)NC2CCC(=O)NC2=O)ccc1N1CCN(CC2CC3(CCN(c4ccc([C@H]5c6ccc(O)cc6OC[C@H]5c5ccccc5)cc4)CC3)C2)CC1 (single isomer, unassigned) [Compound A97] | 0.5 to 5 µM |  |  | < 0.001 µM | 25 to 50% | 
O=C1CCC(NC(=O)c2ccc(C3CCN(CC4CCN(c5ccc([C@H]6c7ccc(O)cc7OC[C@H]6c6ccccc6)cc5F)CC4)CC3)cn2)C(=O)N1 (single isomer, unassigned) [Compound A101] | > 5 µM |  |  | < 0.001 µM | < 25% | 
COc1nc(C(=O)NC2CCC(=O)NC2=O)ccc1N1CCN(CC2CCN(c3ccc([C@H]4c5ccc(O)cc5OC[C@H]4c4ccccc4)cc3F)CC2)CC1 (single isomer, unassigned) [Compound A102] | 0.5 to 5 µM | < 0.001 µM | 50 to 75% |  |  | 
O=C1CCC(N2C(=O)c3cc4c(cc3C2=O)CN(C(=O)CN2CCC3(CC2)CN(c2ccc([C@@H]5c6ccc(O)cc6OC[C@@H]5c5ccccc5)cc2)C3)C4)C(=O)N1 (stereo partly drawn) [Compound A47, 2-(2,6-dioxopiperidin-3-yl)-6-(2-(2-(4-((3S,4R)-7-hydroxy-3-phenylchroman-4-yl)phenyl)-2,7-diazaspiro[3.5]nonan-7-yl)acetyl)-6,7-dihydropyrrolo[3,4-f]isoindole-1,3(2H,5H)-dione] | 0.5 to 5 µM | 0.01 to 0.1 µM | 25 to 50% |  |  | 
O=C1CCC(N2Cc3cc4c(cc3C2=O)CN(C(=O)CN2CCC3(CC2)CN(c2ccc([C@H]5c6ccc(O)cc6OC[C@H]5c5ccccc5)cc2)C3)C4)C(=O)N1 (stereo partly drawn) [Compound A48, 3-(6-(2-(2-(4-((3R,4S)-7-hydroxy-3-phenylchroman-4-yl)phenyl)-2,7-diazaspiro[3.5]nonan-7-yl)acetyl)-1-oxo-3,5,6,7-tetrahydropyrrolo[3,4-f]isoindol-2(1H)-yl)piperidine-2,6-dione] | 0.05 to 0.5 µM | > 0.1 µM | < 25% |  |  | 
COc1cc(N2CCC(CN3CCN4c5ccc6c(c5OC[C@H]4C3)CN(C3CCC(=O)NC3=O)C6=O)CC2)ccc1[C@H]1c2ccc(O)cc2OC[C@H]1c1ccccc1 (stereo partly drawn) [Compound A76, 3-((R)-7-((1-(4-((3R,4S)-7-hydroxy-3-phenylchroman-4-yl)-3-methoxyphenyl)piperidin-4-yl)methyl)-1-oxo-1,3,5,5a,6,7,8,9-octahydro-2H-81pyrazino[1′,2′:4,5][1,4]oxazino[2,3-e]isoindol-2-yl)piperidine-2,6-dione] | 0.05 to 0.5 µM |  |  | > 0.1 µM | < 25% | 
O=C1CCC(Nc2ccc3c(c2)OC[C@H]2CN(CC4CC5(CCN(c6ccc([C@@H]7c8ccc(O)cc8OC[C@@H]7c7ccccc7)cc6)CC5)C4)CCN32)C(=O)N1 (stereo partly drawn) [Compound A94, 3-(((R)-3-((7-(4-((3S,4R)-7-hydroxy-3-phenylchroman-4-yl)phenyl)-7-azaspiro[3.5]nonan-2-yl)methyl)-1,2,3,4,4a,5-hexahydrobenzo[b]pyrazino[1,2-d][1,4]oxazin-8-yl)amino)piperidine-2,6-dione] | 0.5 to 5 µM |  |  | 0.001 to 0.01 µM | 50 to 75% | 
